Values quoted from earlier work in US6953823B2, “Elastomeric insulating composition for a solid propellant rocket motor” (Chung Shan Institute of Science and Technology, priority 2003, dated 2005).

System: rats

[OH-].[OH-].[OH-].[OH-].[OH-].[OH-].[Sn+4].[Zn+2] [Zinc Hydroxystannate, zinc hydroxystannate]
Oral Toxicity (LD50, rats): >5 gr/kg
